This passage reports IC50 results from BindingDB's records for patent US11046658 (Incyte, 2021).

Molecules are shown by their SMILES.

In assay [1] the target is Phosphatidylinositol 4,5-bisphosphate 3-kinase catalytic subunit gamma isoform (Homo sapiens, UniProt P48736). Nature of the assay: PI3K-gamma Scintillation Proximity Assay. An excerpt:
(§1) Materials: [γ-33P]ATP (10 mCi/mL) and Wheat Germ Agglutinin (WGA) YSi SPA Scintillation Beads was purchased from Perkin Elmer (Waltham, Mass.). Lipid kinase substrate, D-myo-Phosphatidylinositol 4,5-bisphosphate (PtdIns(4,5)P2)D (+)-sn-1,2-di-O-octanoylglyceryl, 3-O-phospho linked (PIP2), CAS 204858-53-7, was purchased from Echelon Biosciences (Salt Lake City, Utah). PI3Kγ (p110γ) Recombinant Human Protein was purchased from Life technology (Grand Island, N.Y.). ATP, MgCl2, DTT, EDTA, MOPS and CHAPS were purchased from Sigma Aldrich (St. Louis, Mo.).The kinase reaction was conducted in polystyrene 384-well Greiner Bio-one white plate from Thermo Fisher Scientific in a final volume of 25 μL. Inhibitors were first diluted serially in DMSO and added to the plate wells before the addition of other reaction components. The final concentration of DMSO in the assay was 2%. The PI3Kγ assay was carried out at room temperature in 20 mM MOPS, pH 6.7, 10 mM MgCl2, 5 mM DTT and CHAPS 0.03%. Reactions were initiated by the addition of ATP, the final reaction mixture consisted of 20 μM PIP2, 2 μM ATP, 0.5 μCi [γ-33P] ATP, 13 nM PI3Kγ. […] After the plate sealing, plates were shaken overnight at room temperature and centrifuged at 1500 rpm for 10 min, the radioactivity of the product was determined by scintillation counting on Topcount (Perkin-Elmer). […]
In general terms: In a scintillation proximity assay essentially only radioactivity close to the scintillant gives light.

For assay [2], the target named is T1, Phosphatidylinositol 4,5-bisphosphate 3-kinase catalytic subunit delta isoform (Homo sapiens, UniProt O00329).
T1 sequence (O00329 whole entry): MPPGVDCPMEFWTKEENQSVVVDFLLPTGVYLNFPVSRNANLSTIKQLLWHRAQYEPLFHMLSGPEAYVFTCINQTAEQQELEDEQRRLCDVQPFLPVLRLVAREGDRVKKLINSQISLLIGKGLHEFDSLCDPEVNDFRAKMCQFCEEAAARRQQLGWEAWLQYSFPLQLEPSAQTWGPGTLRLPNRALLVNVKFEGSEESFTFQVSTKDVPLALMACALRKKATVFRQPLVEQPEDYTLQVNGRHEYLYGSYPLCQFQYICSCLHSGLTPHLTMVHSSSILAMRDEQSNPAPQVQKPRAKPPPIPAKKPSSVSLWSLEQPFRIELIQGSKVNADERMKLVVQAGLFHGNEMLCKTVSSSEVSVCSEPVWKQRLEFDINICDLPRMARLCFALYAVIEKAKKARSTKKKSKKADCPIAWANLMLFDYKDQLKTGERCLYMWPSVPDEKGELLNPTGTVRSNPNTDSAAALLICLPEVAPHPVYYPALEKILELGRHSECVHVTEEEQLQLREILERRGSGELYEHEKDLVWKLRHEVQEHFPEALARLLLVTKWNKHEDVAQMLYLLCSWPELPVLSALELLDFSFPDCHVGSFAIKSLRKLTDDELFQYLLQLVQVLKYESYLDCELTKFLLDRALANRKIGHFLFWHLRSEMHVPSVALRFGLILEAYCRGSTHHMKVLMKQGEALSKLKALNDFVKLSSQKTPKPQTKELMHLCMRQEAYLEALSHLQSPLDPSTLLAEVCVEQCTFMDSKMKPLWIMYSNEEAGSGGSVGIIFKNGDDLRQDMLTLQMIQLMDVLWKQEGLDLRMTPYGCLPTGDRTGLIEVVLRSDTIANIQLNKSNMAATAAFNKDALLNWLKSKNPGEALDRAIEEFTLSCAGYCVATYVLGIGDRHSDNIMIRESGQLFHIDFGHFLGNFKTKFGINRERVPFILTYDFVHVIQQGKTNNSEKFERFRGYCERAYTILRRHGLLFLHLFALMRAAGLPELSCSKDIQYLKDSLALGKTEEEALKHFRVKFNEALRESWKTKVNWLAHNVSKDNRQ
Nature of the assay: PI3Kdelta Scintillation Proximity Assay.
Description: as §1, with “PI3Kδ (p110δ/p85α)” for “PI3Kγ (p110γ)”, “Eurofins (St Charles, Mo.).” for “Life technology (Grand Island, N.Y.).”, “PI3Kδ” for “PI3Kγ”, “3.4” for “13”, “PI3Kδ.” for “PI3Kγ.”, “(PerkinElmer).” for “(Perkin-Elmer).”

Chain of Phosphatidylinositol 4,5-bisphosphate 3-kinase catalytic subunit gamma isoform (P48736 whole entry, canonical isoform): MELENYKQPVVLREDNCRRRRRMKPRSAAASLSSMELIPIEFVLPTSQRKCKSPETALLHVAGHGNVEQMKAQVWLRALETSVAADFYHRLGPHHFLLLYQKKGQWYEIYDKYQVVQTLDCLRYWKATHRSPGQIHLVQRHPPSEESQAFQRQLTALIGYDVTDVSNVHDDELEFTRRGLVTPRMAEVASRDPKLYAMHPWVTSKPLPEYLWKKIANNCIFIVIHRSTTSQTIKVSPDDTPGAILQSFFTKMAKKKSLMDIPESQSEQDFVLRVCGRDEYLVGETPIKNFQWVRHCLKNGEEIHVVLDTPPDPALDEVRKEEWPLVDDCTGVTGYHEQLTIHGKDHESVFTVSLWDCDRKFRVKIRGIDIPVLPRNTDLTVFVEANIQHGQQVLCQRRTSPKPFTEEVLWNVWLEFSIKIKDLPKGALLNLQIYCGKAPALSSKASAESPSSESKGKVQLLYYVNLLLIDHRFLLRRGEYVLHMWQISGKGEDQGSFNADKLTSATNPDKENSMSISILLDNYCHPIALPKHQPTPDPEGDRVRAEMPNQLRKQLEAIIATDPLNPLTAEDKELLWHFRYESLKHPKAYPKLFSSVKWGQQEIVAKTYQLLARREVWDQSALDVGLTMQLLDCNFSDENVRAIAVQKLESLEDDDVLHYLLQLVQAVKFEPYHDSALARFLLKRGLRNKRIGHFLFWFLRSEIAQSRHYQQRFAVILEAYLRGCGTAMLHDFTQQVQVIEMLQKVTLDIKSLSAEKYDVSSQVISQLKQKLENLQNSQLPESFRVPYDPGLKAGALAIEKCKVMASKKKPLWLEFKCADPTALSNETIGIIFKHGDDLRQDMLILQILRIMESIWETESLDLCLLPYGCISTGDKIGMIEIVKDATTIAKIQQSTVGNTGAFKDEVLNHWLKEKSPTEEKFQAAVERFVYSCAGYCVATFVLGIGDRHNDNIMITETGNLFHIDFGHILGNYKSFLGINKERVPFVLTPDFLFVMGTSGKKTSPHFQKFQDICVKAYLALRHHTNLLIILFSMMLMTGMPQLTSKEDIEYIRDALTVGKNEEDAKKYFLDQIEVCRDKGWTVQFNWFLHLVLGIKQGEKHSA

One may read the IC50 as the concentration needed to halve the response being measured. Low readings indicate greater potency in that assay, high ones weaker potency in that assay. On to `C#Cc1ccccc1N1CCN(c2nc(-c3cc(C(O)(C(N)=O)C(F)(F)F)ccc3C)cnc2N)CC1` (configuration not stated) [US11046658, Example 122], for which the IC50 in assay [1] and in assay [2] was under 100 nM each time.
